One assay has as its target T1, Aβ42 (Homo sapiens, UniProt P05067).
T1 construct: Recombinant Aβ42, Ultrapure, was purchased from rPeptide, Bogart, Ga., USA; purchased rPeptide, Bogart, Ga., USA
The assay can be described thus: Thioflavin T (ThT) assay for Aβ fibrils. It is filed as biochemical. As to conditions: Table 3, 1:2 molar ratio to Aβ. As to the method: This method was the same as that published previously. Briefly, 60 μl samples of solutions containing Aβ42 (25 μM), ThT (15 μM) and between 0 and 125 μM RI-OR2 or RI-OR2-TAT, in 10 mM phosphate buffered saline (PBS), pH 7.4, were incubated in sealed, black, clear-bottomed 384-well plates (Corning). ThT fluorescence was monitored every 10 mins (λex=442 nm, λem=483 nm) for 48 h at 30° C. in a Biotek Synergy 2 plate reader.

Assay [1] addresses immobilized Aβ1-42 monomers and fibrils (Homo sapiens, UniProt P05067). As to conditions: cited from earlier work.

Where two headings read alike, the source gives them in different places.

The term Kd denotes the free concentration of one partner at which half of the binding sites on the other are occupied at equilibrium, for simple one-to-one binding.

Sequence of immobilized Aβ1-42 monomers and fibrils (P05067 672-713 limits assumed): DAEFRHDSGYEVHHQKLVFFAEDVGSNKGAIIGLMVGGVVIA
T1 sequence (P05067 672-713 limits assumed): as above

For the substance “Ac-rGffvlkGr-NH2 [RI-OR2, reference compound]”, the “% of control” value on Aβ42 (48 hrs, Aβ alone = 100) is recorded as 35%. For the same substance, at Aβ42 (Aβ 25 μM), the “RFU at 48 hours” value amounted to 72265 RFU. The Kd was 9.5 µM in assay [1] (previously reported value, read-out: Kd, binding to Aβ42 fibrils); 25 to 30 µM in assay [1] (published SPR data (28), read-out: binding affinity (Kd) for interaction with Aβ monomers and fibrils).
